{"source": "patent US11980648B2", "about": "“Compositions including ginsenoside 20(S)-Rg3 and methods of using ginsenoside 20(S)-Rg3 to inhibit alpha herpesvirus” (MIDDLE TENNESSEE STATE UNIVERSITY, priority 2020, dated 2024)", "test_system": "HSV-1", "assay": "Time studies of HSV-1 inhibition (PrestoBlue)", "assay_type": "cell-based, herpes simplex virus type 1", "conditions": "Rg3 50 μM", "protocol": "Time Studies. For virus inhibition studies described above, reagent 20(S)-Rg3 and virus were added to cells simultaneously. To evaluate the potential mode of action of Rg3, various combinations of valacyclovir, Rg3 and HSV-1 were tested at different time periods. The following combinations were evaluated at both one hour and four hours: • Virus applied to cells first (for one hour or four hours), followed by addition of valacyclovir, Rg3 or both valacyclovir and Rg3 to the cells; • Valacyclovir or Rg3 or both valacyclovir and Rg3 applied to cells first (for one or four hours), followed by virus; • Valacyclovir or Rg3 incubated together with virus first for one or four hours then added to cells.\nAll procedures described for evaluation of virus inhibition were followed in identical fashion as outlined for the PrestoBlue procedure except valacyclovir was used at a constant concentration of 16 μM and 20(S)-Rg3 at 50 μM.", "data": [{"smiles": "CC(C)=CCC[C@](C)(O)C1CC[C@]2(C)C1[C@H](O)CC1[C@@]3(C)CC[C@H](O[C@@H]4OC(CO)[C@@H](O)[C@@H](O)C4O[C@@H]4OC(CO)[C@@H](O)[C@@H](O)C4O)C(C)(C)C3CC[C@]12C", "note": "(stereo partly drawn) [20(S)-Rg3, 20(S)-ginsenoside-Rg3]", "values": [{"measurement": "Percent Inhibition of HSV-1", "setting": "HSV-1 incubated with compound(s) 4 hours prior to addition to cells, valacyclovir 16 μM", "result": "over 110%"}, {"measurement": "Percent Inhibition of HSV-1", "setting": "HSV-1 incubated with compound(s) 4 hours prior to addition to cells, valacyclovir 16 μM, listed as Rg3", "result": "113.7±14.8", "unit": "%"}, {"measurement": "Percent Inhibition of HSV-1", "setting": "cells pretreated with compound 4 hours prior to HSV-1 addition", "result": "90.1±11.1", "unit": "%"}, {"measurement": "Percent Inhibition of HSV-1", "setting": "virus present on cells 4 hours prior to compound addition", "result": "50.7±4.4", "unit": "%"}]}]}
